{
  "source": "ChEMBL document CHEMBL1135938",
  "about": "“Synthesis of N-[4-[1-ethyl-2-(2,4-diaminofuro[2,3-d]pyrimidin-5-yl)ethyl]benzoyl]-L-glutamic acid as an antifolate” (J Med Chem, 2002)",
  "key": {"[1]": {"system": "R2", "experiment": "Inhibition of growth of R2 (n=2)", "assay_type": "functional, cell-based", "conditions": "Homo sapiens"}, "[2]": {"system": "R1", "experiment": "Inhibition of growth of R1 (n=2)", "conditions": "Homo sapiens"}, "[3]": {"experiment": "Inhibition of growth of R30dm (n=2)", "assay_type": "functional, Homo sapiens"}, "[4]": {"system": "TK-10", "experiment": "Inhibition of growth of TK-10 renal cancer cell line", "assay_type": "functional", "conditions": "Homo sapiens"}, "[5]": {"experiment": "Inhibition of growth of IGROV1 ovarian cancer cell line", "assay_type": "functional", "conditions": "Homo sapiens, IGROV-1"}, "[6]": {"system": "RPMI-8226", "experiment": "Inhibition of growth of RPMI-8226 leukemia cell line", "assay_type": "functional", "conditions": "Homo sapiens"}, "[7]": {"system": "HCT-15", "experiment": "Inhibition of growth of HCT -15 colon cancer cell line", "assay_type": "functional", "conditions": "Homo sapiens"}, "[8]": {"system": "SW-620", "experiment": "Inhibition of growth of SW -620 colon cancer cell line", "assay_type": "functional", "conditions": "Homo sapiens"}, "[9]": {"system": "U-251", "experiment": "Inhibition of growth of U251 CNS cancer cell line", "assay_type": "functional", "conditions": "Homo sapiens"}, "[10]": {"system": "MDA-MB-435", "experiment": "Inhibition of growth of MDA-MB-435 breast cancer cell line", "assay_type": "functional", "conditions": "Homo sapiens"}, "[11]": {"system": "LOX IMVI", "experiment": "Inhibition of growth of LOX IMVI melanoma cell line", "assay_type": "functional", "conditions": "Homo sapiens"}, "[12]": {"system": "OVCAR-5", "experiment": "Inhibition of growth of OVCAR-5 ovarian cancer cell line", "assay_type": "functional", "conditions": "Homo sapiens"}, "[13]": {"system": "SR", "experiment": "Inhibition of growth of SR leukemia cell line", "assay_type": "functional", "conditions": "Homo sapiens"}, "[14]": {"system": "CCRF-CEM", "experiment": "Inhibition of growth of CCRF-CEM leukemia cell line", "assay_type": "functional", "conditions": "Homo sapiens"}, "[15]": {"system": "UO-31", "experiment": "Inhibition of growth of UO-31 renal cancer cell line", "assay_type": "functional", "conditions": "Homo sapiens"}, "[16]": {"system": "MDA-N", "experiment": "Inhibition of growth of MDA-Nbreast cancer cell line", "assay_type": "functional", "conditions": "Homo sapiens"}, "[17]": {"system": "HT-29", "experiment": "Inhibition of growth of HT 29colon cancer cell line", "assay_type": "functional", "conditions": "Homo sapiens"}, "[18]": {"target": "Dihydrofolate reductase (Escherichia coli, UniProt P0ABQ4)", "sequence (P0ABQ4 whole entry)": "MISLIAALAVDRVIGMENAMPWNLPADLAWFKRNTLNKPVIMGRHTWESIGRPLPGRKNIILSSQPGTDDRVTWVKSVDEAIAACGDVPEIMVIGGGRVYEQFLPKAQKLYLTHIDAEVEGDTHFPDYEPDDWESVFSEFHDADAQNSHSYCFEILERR", "experiment": "Inhibition of Escherichia coli dihydrofolate reductase (DHFR)"}, "[19]": {"system": "SF-539", "experiment": "Inhibition of growth of SF-539 CNS cancer cell line", "assay_type": "functional", "conditions": "Homo sapiens"}, "[20]": {"system": "A549", "experiment": "Inhibition of growth of A549/ATCC nonsmall cell lung cancer cell line", "assay_type": "functional", "conditions": "Homo sapiens"}, "[21]": {"system": "MCF7", "experiment": "Inhibition of growth of MCF-7 breast cancer cell line", "assay_type": "functional", "conditions": "Homo sapiens"}, "[22]": {"target": "Dihydrofolate reductase (Homo sapiens, UniProt P00374)", "sequence (P00374 whole entry)": "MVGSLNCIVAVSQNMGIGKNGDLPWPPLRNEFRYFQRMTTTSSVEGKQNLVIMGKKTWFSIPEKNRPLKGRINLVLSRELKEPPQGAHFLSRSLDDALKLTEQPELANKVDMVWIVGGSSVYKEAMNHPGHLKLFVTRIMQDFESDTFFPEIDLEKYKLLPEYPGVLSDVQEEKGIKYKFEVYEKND", "description": "Inhibition of rh dihydrofolate reductase (DHFR)"}, "[23]": {"target": "Thymidylate synthase (Homo sapiens, UniProt P04818)", "sequence (P04818 whole entry)": "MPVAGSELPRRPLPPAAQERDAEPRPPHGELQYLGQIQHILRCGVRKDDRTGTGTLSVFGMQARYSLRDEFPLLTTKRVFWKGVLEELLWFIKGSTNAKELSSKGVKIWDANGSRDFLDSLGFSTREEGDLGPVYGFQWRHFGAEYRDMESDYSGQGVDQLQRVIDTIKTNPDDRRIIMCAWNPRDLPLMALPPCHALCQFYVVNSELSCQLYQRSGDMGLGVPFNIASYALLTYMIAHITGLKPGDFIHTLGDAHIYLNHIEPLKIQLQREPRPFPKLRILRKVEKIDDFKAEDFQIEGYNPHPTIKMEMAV", "experiment": "Inhibition of recombinant human thymidylate synthase (TS)"}, "[24]": {"system": "R2", "experiment": "Inhibition of growth of R2(n=2)", "assay_type": "functional, cell-based", "conditions": "Homo sapiens"}, "[25]": {"system": "ACHN", "experiment": "Inhibition of growth of ACHN renal cancer cell line", "assay_type": "functional", "conditions": "Homo sapiens"}, "[26]": {"system": "NCI-H460", "experiment": "Inhibition of growth of NCI-H460 nonsmall cell lung cancer cell line", "assay_type": "functional", "conditions": "Homo sapiens"}, "[27]": {"system": "SF-268", "experiment": "Inhibition of growth of SF-268 CNS cancer cell line", "assay_type": "functional", "conditions": "Homo sapiens"}, "[28]": {"system": "HL-60", "experiment": "Inhibition of growth of HL-60 leukemia cell line", "assay_type": "functional", "conditions": "Homo sapiens"}, "[29]": {"system": "SF-295", "experiment": "Inhibition of growth of SF-295 CNS cancer cell line", "assay_type": "functional", "conditions": "Homo sapiens"}, "[30]": {"system": "NCI-H522", "experiment": "Inhibition of growth of NCI- H522 nonsmall cell lung cancer cell line", "assay_type": "functional", "conditions": "Homo sapiens"}, "[31]": {"system": "CCRF-CEM", "experiment": "Inhibition of growth of CCRF-CEM human leukemia cells (n=2)", "assay_type": "functional, cell-based"}, "[32]": {"system": "SK-MEL-5", "experiment": "Inhibition of growth of SK-MEL5 melanoma cell line", "assay_type": "functional", "conditions": "Homo sapiens"}, "[33]": {"system": "R1", "experiment": "Inhibition of growth of R1(n=2)", "conditions": "Homo sapiens"}, "[34]": {"target": "Thymidylate synthase (Escherichia coli, UniProt C3SWJ7)", "sequence (C3SWJ7 whole entry)": "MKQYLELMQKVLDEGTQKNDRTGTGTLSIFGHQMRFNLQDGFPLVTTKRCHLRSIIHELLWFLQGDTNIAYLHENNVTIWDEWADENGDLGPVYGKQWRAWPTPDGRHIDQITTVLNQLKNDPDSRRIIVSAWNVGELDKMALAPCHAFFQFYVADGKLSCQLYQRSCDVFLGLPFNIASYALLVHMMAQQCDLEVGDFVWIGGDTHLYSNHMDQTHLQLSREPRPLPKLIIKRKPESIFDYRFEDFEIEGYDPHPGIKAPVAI", "experiment": "Inhibition of Escherichia coli thymidylate synthase (TS)"}, "[35]": {"system": "CAKI-1", "experiment": "Inhibition of growth of CAKI-1 renal cancer cell line", "assay_type": "functional", "conditions": "Homo sapiens"}, "[36]": {"target": "Bifunctional dihydrofolate reductase-thymidylate synthase (Toxoplasma gondii, UniProt Q07422)", "sequence (Q07422 whole entry)": "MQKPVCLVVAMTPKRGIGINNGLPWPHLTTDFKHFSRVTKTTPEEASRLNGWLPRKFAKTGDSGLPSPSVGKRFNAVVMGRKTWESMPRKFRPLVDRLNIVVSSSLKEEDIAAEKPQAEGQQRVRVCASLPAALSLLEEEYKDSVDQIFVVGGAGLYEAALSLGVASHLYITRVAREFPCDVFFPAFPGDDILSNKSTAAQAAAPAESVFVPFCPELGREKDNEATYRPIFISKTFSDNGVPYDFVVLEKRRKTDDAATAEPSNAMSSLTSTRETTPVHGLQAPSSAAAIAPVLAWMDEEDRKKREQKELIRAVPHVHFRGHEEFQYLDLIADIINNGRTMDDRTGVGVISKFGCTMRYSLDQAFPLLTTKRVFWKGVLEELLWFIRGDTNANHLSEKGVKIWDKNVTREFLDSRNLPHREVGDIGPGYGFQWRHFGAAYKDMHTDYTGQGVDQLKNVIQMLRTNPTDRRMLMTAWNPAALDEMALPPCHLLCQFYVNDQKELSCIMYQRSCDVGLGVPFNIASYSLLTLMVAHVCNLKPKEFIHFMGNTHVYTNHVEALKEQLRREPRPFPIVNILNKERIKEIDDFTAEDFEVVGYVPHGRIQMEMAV", "experiment": "Inhibition of Toxoplasma gondii dihydrofolate reductase (DHFR)"}, "[37]": {"system": "K562", "experiment": "Inhibition of growth of K-562 leukemia cell line", "assay_type": "functional", "conditions": "Homo sapiens"}, "[38]": {"substrate": "CCC(Cc1coc2nc(N)cc(N)c12)c1ccc(C(=O)NC(CCC(=O)O)C(=O)O)cc1", "experiment": "folyl-poly-glutamate synthetase activity measured as Vmax"}, "[39]": {"substrate": "CCC(Cc1coc2nc(N)cc(N)c12)c1ccc(C(=O)NC(CCC(=O)O)C(=O)O)cc1", "experiment": "(§1) folyl-poly-glutamate synthetase activity measured as Km"}, "[40]": {"substrate": "Nc1nc(N)c2nc(CNc3ccc(C(=O)N[C@@H](CCC(=O)O)C(=O)O)cc3)cnc2n1", "experiment": "as §1"}, "[41]": {"substrate": "Nc1nc(N)c2nc(CNc3ccc(C(=O)N[C@@H](CCC(=O)O)C(=O)O)cc3)cnc2n1", "experiment": "folyl-poly-glutamate synthetase activity measured as Vmax; rel means relative"}},
  "data": [
    {"molecule": "CN(Cc1cnc2nc(N)nc(N)c2n1)c1ccc(C(=O)N[C@@H](CCC(=O)O)C(=O)O)cc1", "note": "[METHOTREXATE]", "values": [
      {"measurement": "EC50", "setting": "[1]", "result": 2600, "unit": "nM"},
      {"measurement": "EC50", "setting": "[2]", "result": 1050, "unit": "nM"},
      {"measurement": "EC50", "setting": "[3]", "result": 15, "unit": "nM"}
    ]},
    {"molecule": "CCC(Cc1coc2nc(N)cc(N)c12)c1ccc(C(=O)NC(CCC(=O)O)C(=O)O)cc1", "note": "(configuration not stated)", "values": [
      {"measurement": "GI50", "setting": "[4]", "result": 340, "unit": "nM"},
      {"measurement": "GI50", "setting": "[5]", "result": "< 10", "unit": "nM"},
      {"measurement": "GI50", "setting": "[6]", "result": "< 10", "unit": "nM"},
      {"measurement": "GI50", "setting": "[7]", "result": "< 10", "unit": "nM"},
      {"measurement": "GI50", "setting": "[8]", "result": "< 10", "unit": "nM"},
      {"measurement": "GI50", "setting": "[9]", "result": 23.2, "unit": "nM"},
      {"measurement": "GI50", "setting": "[10]", "result": "< 10", "unit": "nM"},
      {"measurement": "GI50", "setting": "[11]", "result": 23.7, "unit": "nM"},
      {"measurement": "GI50", "setting": "[12]", "result": "< 10", "unit": "nM"},
      {"measurement": "GI50", "setting": "[13]", "result": "< 10", "unit": "nM"},
      {"measurement": "GI50", "setting": "[14]", "result": "< 10", "unit": "nM"},
      {"measurement": "GI50", "setting": "[15]", "result": "< 10", "unit": "nM"},
      {"measurement": "GI50", "setting": "[16]", "result": "< 10", "unit": "nM"},
      {"measurement": "GI50", "setting": "[17]", "result": 23.9, "unit": "nM"},
      {"measurement": "IC50", "setting": "[18]", "result": 440, "unit": "nM"},
      {"measurement": "GI50", "setting": "[19]", "result": "< 10", "unit": "nM"},
      {"measurement": "GI50", "setting": "[20]", "result": 13.8, "unit": "nM"},
      {"measurement": "GI50", "setting": "[21]", "result": "< 10", "unit": "nM"},
      {"measurement": "IC50", "setting": "[22]", "result": 220, "unit": "nM"},
      {"measurement": "EC50", "setting": "[3]", "result": 50, "unit": "nM"},
      {"measurement": "IC50", "setting": "[23]", "result": 220, "unit": "µM"},
      {"measurement": "EC50", "setting": "[24]", "result": 890, "unit": "nM"},
      {"measurement": "GI50", "setting": "[25]", "result": "< 10", "unit": "nM"},
      {"measurement": "GI50", "setting": "[26]", "result": "< 10", "unit": "nM"},
      {"measurement": "GI50", "setting": "[27]", "result": "< 10", "unit": "nM"},
      {"measurement": "GI50", "setting": "[28]", "result": "< 10", "unit": "nM"},
      {"measurement": "GI50", "setting": "[29]", "result": "< 10", "unit": "nM"},
      {"measurement": "GI50", "setting": "[30]", "result": "< 10", "unit": "nM"},
      {"measurement": "EC50", "setting": "[31]", "result": 35.5, "unit": "nM"},
      {"measurement": "GI50", "setting": "[32]", "result": 81.8, "unit": "nM"},
      {"measurement": "EC50", "setting": "[33]", "result": 2100, "unit": "nM"},
      {"measurement": "IC50", "setting": "[34]", "result": 220, "unit": "µM"},
      {"measurement": "GI50", "setting": "[35]", "result": "< 10", "unit": "nM"},
      {"measurement": "IC50", "setting": "[36]", "result": 1100, "unit": "nM"},
      {"measurement": "GI50", "setting": "[37]", "result": "< 10", "unit": "nM"}
    ]},
    {"molecule": "Folylpolyglutamate synthase, mitochondrial (Homo sapiens), Q05932 (protein) MSRARSHLRAALFLAAASARGITTQVAARRGLSAWPVPQEPSMEYQDAVRMLNTLQTNAGYLEQVKRQRGDPQTQLEAMELYLARSGLQVEDLDRLNIIHVTGTKGKGSTCAFTECILRSYGLKTGFFSSPHLVQVRERIRINGQPISPELFTKYFWRLYHRLEETKDGSCVSMPPYFRFLTLMAFHVFLQEKVDLAVVEVGIGGAYDCTNIIRKPVVCGVSSLGIDHTSLLGDTVEKIAWQKGGIFKQGVPAFTVLQPEGPLAVLRDRAQQISCPLYLCPMLEALEEGGPPLTLGLEGEHQRSNAALALQLAHCWLQRQDRHGAGEPKASRPGLLWQLPLAPVFQPTSHMRLGLRNTEWPGRTQVLRRGPLTWYLDGAHTASSAQACVRWFRQALQGRERPSGGPEVRVLLFNATGDRDPAALLKLLQPCQFDYAVFCPNLTEVSSTGNADQQNFTVTLDQVLLRCLEHQQHWNHLDEEQASPDLWSAPSPEPGGSASLLLAPHPPHTCSASSLVFSCISHALQWISQGRDPIFQPPSPPKGLLTHPVAHSGASILREAAAIHVLVTGSLHLVGGVLKLLEPALSQ", "values": [
      {"measurement": "Vmax", "setting": "[38]", "result": 0.37, "unit": "rel"},
      {"measurement": "Km", "setting": "[39]", "result": 1.1, "unit": "µM"},
      {"measurement": "Km", "setting": "[40]", "result": 3.2, "unit": "µM"},
      {"measurement": "Vmax", "setting": "[41]", "result": 1, "unit": "rel"}
    ]}
  ]
}
